Test results from ChEMBL document CHEMBL5550140, “Emerging ferroptosis inhibitors as a novel therapeutic strategy for the treatment of neonatal hypoxic-ischemic encephalopathy” (2024).

Test system: Mus musculus
Assay: Neuroprotective activity against hypoxia-ischemia brain injured mouse model assessed as reduction in infarct volume at 20 mg/kg, ip measured after 72 hrs by immuno-histochemistry based staining analysis relative to control
Assay type: functional
Design: scale not given: the % may be the effect or the level left

Q: With `Oc1cccnc1NC(c1ccc(Cl)cc1)c1ccc2cccnc2c1O` (stereo unspecified) as the molecule, how does the Activity read?
A: Its Activity is 26.3%.
